Laboratory results taken from US9855268B2, “Triazolo[4,5-d]pyrimidine derivatives” (Merck Patent GmbH, priority 2013, dated 2018).
pIC50: −log10 of the molar value.

Experiments:
[1] = target: T1, GCN2 (Homo sapiens, UniProt Q9P2K8); assay: GCN2 enzyme assay (TR-FRET Lanthascreen, GFP-eIF2alpha phosphorylation); assay type: biochemical; details: 10 μM ATP, 80 nM GFP-eIF2a, 30 nM GCN2
In short: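 Phosphorylation of GFP-eIF2alpha (80 nM) by GCN2 run at room temperature with 10 μM ATP. After EDTA quench, product quantified by Lanthascreen TR-FRET (antibody–GFP complex, 340 nm excitation).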
Target sequence in this assay (Q9P2K8 whole entry, species assumed): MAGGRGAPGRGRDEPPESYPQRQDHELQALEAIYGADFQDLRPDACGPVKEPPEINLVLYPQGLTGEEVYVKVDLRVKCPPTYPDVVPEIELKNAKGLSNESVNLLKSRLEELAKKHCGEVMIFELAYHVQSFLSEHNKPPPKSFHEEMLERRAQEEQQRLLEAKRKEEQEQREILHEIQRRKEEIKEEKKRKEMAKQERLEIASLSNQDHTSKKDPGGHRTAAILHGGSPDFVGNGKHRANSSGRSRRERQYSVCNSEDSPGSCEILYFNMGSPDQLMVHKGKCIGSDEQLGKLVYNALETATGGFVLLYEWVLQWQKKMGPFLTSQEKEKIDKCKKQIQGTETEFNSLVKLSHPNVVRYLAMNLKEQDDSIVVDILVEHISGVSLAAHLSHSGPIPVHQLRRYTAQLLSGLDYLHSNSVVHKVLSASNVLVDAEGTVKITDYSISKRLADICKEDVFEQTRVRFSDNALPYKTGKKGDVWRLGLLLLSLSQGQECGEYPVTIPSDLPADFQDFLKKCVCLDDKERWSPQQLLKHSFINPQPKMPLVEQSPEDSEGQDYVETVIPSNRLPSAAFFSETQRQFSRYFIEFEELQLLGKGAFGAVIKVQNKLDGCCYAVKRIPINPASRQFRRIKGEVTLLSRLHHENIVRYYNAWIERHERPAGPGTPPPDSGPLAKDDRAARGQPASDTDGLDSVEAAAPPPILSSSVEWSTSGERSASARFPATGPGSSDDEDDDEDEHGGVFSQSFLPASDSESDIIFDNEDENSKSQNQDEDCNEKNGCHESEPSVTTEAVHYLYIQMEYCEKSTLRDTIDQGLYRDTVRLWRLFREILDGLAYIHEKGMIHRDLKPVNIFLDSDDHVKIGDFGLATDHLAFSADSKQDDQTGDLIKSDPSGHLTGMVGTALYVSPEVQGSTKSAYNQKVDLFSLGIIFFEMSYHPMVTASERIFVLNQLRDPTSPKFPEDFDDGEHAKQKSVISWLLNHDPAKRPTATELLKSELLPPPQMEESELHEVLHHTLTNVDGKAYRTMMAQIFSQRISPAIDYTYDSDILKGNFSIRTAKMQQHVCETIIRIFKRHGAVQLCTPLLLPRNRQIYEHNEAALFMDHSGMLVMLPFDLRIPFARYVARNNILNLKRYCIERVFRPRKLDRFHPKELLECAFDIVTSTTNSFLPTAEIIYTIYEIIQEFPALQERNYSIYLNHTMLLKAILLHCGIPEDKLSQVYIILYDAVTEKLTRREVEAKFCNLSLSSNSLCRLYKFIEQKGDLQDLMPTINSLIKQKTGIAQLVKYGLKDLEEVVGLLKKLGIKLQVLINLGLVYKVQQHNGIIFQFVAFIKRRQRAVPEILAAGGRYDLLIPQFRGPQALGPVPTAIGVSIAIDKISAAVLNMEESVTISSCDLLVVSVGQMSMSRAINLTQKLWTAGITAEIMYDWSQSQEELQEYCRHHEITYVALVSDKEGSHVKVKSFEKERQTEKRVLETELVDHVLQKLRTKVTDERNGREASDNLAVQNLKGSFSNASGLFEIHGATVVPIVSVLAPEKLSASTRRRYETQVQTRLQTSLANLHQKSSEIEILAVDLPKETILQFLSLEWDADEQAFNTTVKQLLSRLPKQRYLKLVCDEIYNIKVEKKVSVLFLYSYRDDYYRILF

[2] = target: GSK3α(h) (Homo sapiens, UniProt P49840); assay: GSK3α radiometric kinase assay (33P-ATP, phospho GS2 peptide); assay type: biochemical; details: read-out: IC50 GSK3α (enzyme assay)
In short: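 Human GSK3α incubated with 20 μM phospho-GS2 peptide in 8 mM MOPS pH 7,0, 10 mM Mg-acetate and [γ-33P]ATP (concentration as required), started with MgATP. After 40 minutes at room temperature, stopped with phosphoric acid; 33P incorporation measured by filtermat spotting and scintillation counting.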

[3] = target: GSK3β(h) (Homo sapiens, UniProt P49841); assay: GSK3β radiometric kinase assay (33P-ATP, phospho GS2 peptide); assay type: biochemical; details: read-out: IC50 GSK3β (enzyme assay)
Experimental: GSK3β(h) is incubated with 8 mM MOPS pH 7,0, 0,2 mM EDTA, 20 μM
[…](p)EDEEE (phosphor GS2 peptide), 10 mM Mg-acetate and [gamma-33P-ATP](specific activity approx. 500 cpm/Pmol, concentration as required). The reaction is initiated by the addition of the MgATP. After incubation for 40 minutes at the room temperature, the Reaction is stopped by the addition of 3% phosphoric acid solution. 10 μL of reaction is then spotted onto a P30 filtermat and washed three times for 5 minutes in 50 mM phosphoric acid and once in methanol prior to drying and scintillation counting.

[4] = target: T1, GCN2; assay: Cellular assay of GCN2 activity (phospho-eIF2alpha immunocytochemistry after tryptophanol); assay type: cell-based; design: endogenous in cells; host or cells: U2OS; details: Human U2OS cells, 2 h compound, 600 μM tryptophanol 30 min
In short: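 Readout in human U2OS cells: compound pretreatment 2 h, then tryptophanol (600 μM final) for 30 min to trigger GCN2 signalling. Fixed, permeabilised cells quantified by immunocytochemistry for phosphorylation, normalised to DMSO controls as % effect; IC50 from concentration-response.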
Target sequence in this assay (Q9P2K8 whole entry): as the sequence (Q9P2K8 whole entry, species assumed) above

Sequence of GSK3α(h) (P49840 whole entry): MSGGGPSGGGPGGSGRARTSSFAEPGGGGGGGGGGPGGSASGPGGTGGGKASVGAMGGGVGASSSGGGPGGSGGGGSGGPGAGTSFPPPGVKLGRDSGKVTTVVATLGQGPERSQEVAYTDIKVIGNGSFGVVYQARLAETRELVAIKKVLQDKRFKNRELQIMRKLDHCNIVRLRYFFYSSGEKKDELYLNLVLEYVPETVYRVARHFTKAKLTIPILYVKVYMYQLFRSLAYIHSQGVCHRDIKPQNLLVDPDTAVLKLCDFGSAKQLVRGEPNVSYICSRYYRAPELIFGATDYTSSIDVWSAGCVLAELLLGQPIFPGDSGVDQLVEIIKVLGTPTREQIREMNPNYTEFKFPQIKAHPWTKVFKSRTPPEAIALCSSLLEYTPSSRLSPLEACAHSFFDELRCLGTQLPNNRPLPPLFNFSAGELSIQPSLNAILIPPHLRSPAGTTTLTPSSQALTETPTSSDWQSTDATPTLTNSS
Sequence of GSK3β(h) (P49841 whole entry): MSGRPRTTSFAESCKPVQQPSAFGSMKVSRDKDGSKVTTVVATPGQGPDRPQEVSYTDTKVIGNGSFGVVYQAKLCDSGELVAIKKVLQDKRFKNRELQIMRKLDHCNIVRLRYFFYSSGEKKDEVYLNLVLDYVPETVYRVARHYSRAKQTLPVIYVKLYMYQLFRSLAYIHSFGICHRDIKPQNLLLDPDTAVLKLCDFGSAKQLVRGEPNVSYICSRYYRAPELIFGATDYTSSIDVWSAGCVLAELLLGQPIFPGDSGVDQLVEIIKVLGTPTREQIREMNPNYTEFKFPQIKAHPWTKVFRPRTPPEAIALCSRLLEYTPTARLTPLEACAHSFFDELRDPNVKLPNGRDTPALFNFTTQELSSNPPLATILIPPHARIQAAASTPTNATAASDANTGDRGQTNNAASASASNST

**Q.** Which results are given for CCOc1ccc(-n2nnc3cnc(N[C@@H]4CC[C@@H](C(=O)NCCC(C)(C)O)C4)nc32)cc1 [A240, (1R,3R)-3-[3-(4-ethoxy-phenyl)-3H-[1,2,3]triazolo[4,5-d]pyrimidin-5-ylamino]-cyclopentanecarboxylic acid (3-hydroxy-3-methyl-butyl)-amide]?
**A.** pIC50 [1]: > 6.00; pIC50 [2]: > 6.00; pIC50 [3]: > 6.00; pIC50 [4]: 5.00 to 5.30

**Q.** COc1ccc(-n2nnc3cnc(N[C@@H]4CC[C@@H](C(N)=O)C4)nc32)cc1C [A162, (1R,3R)-3-[3-(4-methoxy-3-methyl-phenyl)-3H-[1,2,3]triazolo[4,5-d]pyrimidin-5-ylamino]-cyclopentanecarboxylic acid amide] was tested. Which pIC50 [1] did it give?
**A.** > 6.00

**Q.** What about the pIC50 [2] of the same compound?
**A.** > 6.00

**Q.** What about the pIC50 [3] of the same compound?
**A.** > 6.00

**Q.** And the pIC50 [4]?
**A.** 5.00 to 5.30

**Q.** What does the source list for COCCn1cc(-c2ccc(-n3nnc4cnc(N[C@@H]5CC[C@H](N)C5)nc43)cc2)cn1 [A121, (1S,3R)—N3-(3-{4-[1-(2-methoxy-ethyl)-1H-pyrazol-4-yl]-phenyl}-3H-[1,2,3]triazolo[4,5-d]pyrimidin-5-yl)-cyclopentane-1,3-diamine]?
**A.** pIC50 [1]: > 6.00; pIC50 [2]: > 6.00; pIC50 [3]: 5.30 to 6.00; pIC50 [4]: 5.30 to 6.00

**Q.** Which results are given for NC(=O)[C@@H]1CC[C@@H](Nc2ncc3nnn(-c4ccc(OCCN5CCOCC5)cc4)c3n2)C1 [A277, (1R,3R)-3-{3-[4-(2-morpholin-4-yl-ethoxy)-phenyl]-3H-[1,2,3]triazolo[4,5-d]pyrimidin-5-ylamino}-cyclopentanecarboxylic acid amide]?
**A.** pIC50 [1]: > 6.00; pIC50 [2]: > 6.00; pIC50 [3]: > 6.00; pIC50 [4]: 5.00 to 5.30

**Q.** What does the source list for NC(=O)[C@@H]1CC[C@@H](Nc2ncc3nnn(-c4ccc(-c5cnn(CCO)c5)c(F)c4)c3n2)C1 [A260, (1R,3R)-3-(3-{3-fluoro-4-[1-(2-hydroxy-ethyl)-1H-pyrazol-4-yl]-phenyl}-3H-[1,2,3]triazolo[4,5-d]pyrimidin-5-ylamino)-cyclopentanecarboxylic acid amide]?
**A.** pIC50 [1]: > 6.00; pIC50 [2]: > 6.00; pIC50 [3]: > 6.00; pIC50 [4]: 5.00 to 5.30

**Q.** What does the source list for OCCOc1ccc(-n2nnc3cnc(N[C@@H]4CC[C@@H](O)C4)nc32)cc1 [A203, (1R,3R)-3-{3-[4-(2-hydroxy-ethoxy)-phenyl]-3H-[1,2,3]triazolo[4,5-d]pyrimidin-5-ylamino}-cyclopentanol]?
**A.** pIC50 [1]: > 6.00; pIC50 [2]: > 6.00; pIC50 [3]: > 6.00; pIC50 [4]: 5.30 to 6.00

**Q.** What does the source list for CCOCCn1cc(-c2ccc(-n3nnc4cnc(N[C@@H]5CC[C@@H](C(N)=O)C5)nc43)cc2)cn1 [A211, (1R,3R)-3-(3-{4-[1-(2-ethoxy-ethyl)-1H-pyrazol-4-yl]-phenyl}-3H-[1,2,3]triazolo[4,5-d]pyrimidin-5-ylamino)-cyclopentanecarboxylic acid amide]?
**A.** pIC50 [1]: > 6.00; pIC50 [2]: > 6.00; pIC50 [3]: > 6.00; pIC50 [4]: 5.00 to 5.30

**Q.** With COCCn1cc(-c2ccc(-n3nnc4cnc(N[C@@H]5CC[C@@H](C(N)=O)C5)nc43)cc2F)cn1 [A221, (1R,3R)-3-(3-{3-fluoro-4-[1-(2-methoxy-ethyl)-1H-pyrazol-4-yl]-phenyl}-3H-[1,2,3]triazolo[4,5-d]pyrimidin-5-ylamino)-cyclopentanecarboxylic acid amide] as the compound, how does the pIC50 [1] read?
**A.** > 6.00

**Q.** And the pIC50 [2]?
**A.** > 6.00

**Q.** And the pIC50 [3]?
**A.** > 6.00

**Q.** And the pIC50 [4]?
**A.** 5.30 to 6.00

**Q.** With CCOCCn1cc(-c2ccc(-n3nnc4cnc(N[C@@H]5CC[C@@H](C(=O)NCCOC)C5)nc43)cc2)cn1 [A225, (1R,3R)-3-(3-{4-[1-(2-ethoxy-ethyl)-1H-pyrazol-4-yl]-phenyl}-3H-[1,2,3]triazolo[4,5-d]pyrimidin-5-ylamino)-cyclopentanecarboxylic acid (2-methoxy-ethyl)-amide] as the compound, how does the pIC50 [1] read?
**A.** > 6.00

**Q.** What about the pIC50 [2] of the same compound?
**A.** > 6.00

**Q.** What about the pIC50 [3] of the same compound?
**A.** > 6.00

**Q.** And the pIC50 [4]?
**A.** 5.30 to 6.00

**Q.** With CC(C)Oc1ccc(-n2nnc3cnc(N[C@@H]4CC[C@@H](O)C4)nc32)cc1 (relative stereo) [A210, (trans)-3-[3-(4-isopropoxy-phenyl)-3H-[1,2,3]triazolo[4,5-d]pyrimidin-5-ylamino]-cyclopentanol] as the compound, how does the pIC50 [1] read?
**A.** > 6.00

**Q.** What about the pIC50 [2] of the same compound?
**A.** > 6.00

**Q.** And the pIC50 [3]?
**A.** > 6.00

**Q.** And the pIC50 [4]?
**A.** 5.00 to 5.30

**Q.** With Cc1cc2cc(-n3nnc4cnc(N[C@@H]5CC[C@@H](C(N)=O)C5)nc43)ccc2o1 [A180, (1R,3R)-3-[3-(2-methyl-benzofuran-5-yl)-3H-[1,2,3]triazolo[4,5-d]pyrimidin-5-ylamino]-cyclopentanecarboxylic acid amide] as the compound, how does the pIC50 [1] read?
**A.** > 6.00

**Q.** And the pIC50 [2]?
**A.** > 6.00

**Q.** What about the pIC50 [3] of the same compound?
**A.** > 6.00

**Q.** What about the pIC50 [4] of the same compound?
**A.** 5.30 to 6.00
